Data: article PMC8618442, “Solubility of Cinnarizine in (Transcutol + Water) Mixtures: Determination, Hansen Solubility Parameters, Correlation, and Thermodynamics” (Molecules, 2021)
≈ marks a conversion by molar mass, not a printed value. Where two headings read alike, the source gives them in different places.

Columns and labels:
[1] = cited from earlier work
[2] = Shake-flask equilibrium solubility of CNZ in {TP + water} mixtures and neat solvents (HPLC at 253 nm); type: physicochemical; conditions: 0.1 MPa
Protocol: Using a Digital Analytical Balance (Mettler Toledo, Greifensee, Switzerland) with a sensitivity of 0.10 mg, all {TP (1) + water (2)} combinations were created on a mass basis. The mass fraction of TP used to make various {TP (1) + water (2)} compositions ranged from 0.10–0.90. Three replicates of each {TP (1) + water (2)} composition were made.
Three repetitions of each experiment were carried out. Inside the Biological Shaker (Julabo, PA, USA), the acquired samples were saturated for three days to achieve equilibrium. After reaching equilibrium, the saturated samples were withdrawn from the shaker and centrifuged at 5000 rpm.

[3] = Apparent thermodynamic analysis of CNZ dissolution (van't Hoff and Gibbs equations); type: physicochemical
Protocol: At the mean harmonic temperature (Thm), all apparent thermodynamic parameters were examined. The Thm was calculated using the usual formula [27]. […] The van’t Hoff and Gibbs equations were used to conduct this analysis.

[4] = design: method as in PMID 25478230; conditions: cited from earlier work
[5] = design: method as in doi:10.1021/acs.jced.5b00075; conditions: cited from earlier work
[6] = TP + water, w1 = 0.1, Thm = 303.0 K
[7] = TP + water, w1 = 0.2, Thm = 303.0 K
[8] = TP + water, w1 = 0.3, Thm = 303.0 K
[9] = TP + water, w1 = 0.4, Thm = 303.0 K
[10] = TP + water, w1 = 0.5, Thm = 303.0 K
[11] = TP + water, w1 = 0.6, Thm = 303.0 K
[12] = TP + water, w1 = 0.7, Thm = 303.0 K
[13] = TP + water, w1 = 0.8, Thm = 303.0 K
[14] = TP + water, w1 = 0.9, Thm = 303.0 K
[15] = w1 = 0.0 (neat water), Thm = 303.0 K
[16] = w1 = 1.0 (neat TP), Thm = 303.0 K

- Solubility (xe) in mole fraction ([2]; TP + water, w1 = 0.1, T = 293.2 K): 1.66 × 10^−7 mole fraction
- Solubility (xe) in mole fraction ([2]; TP + water, w1 = 0.1, T = 298.2 K): 2.30 × 10^−7 mole fraction
- Solubility (xe) in mole fraction ([2]; TP + water, w1 = 0.1, T = 303.2 K): 3.16 × 10^−7 mole fraction
- Solubility (xe) in mole fraction ([2]; TP + water, w1 = 0.1, T = 308.2 K): 3.91 × 10^−7 mole fraction
- Solubility (xe) in mole fraction ([2]; TP + water, w1 = 0.1, T = 313.2 K): 5.30 × 10^−7 mole fraction
- Solubility (xe) in mole fraction ([2]; TP + water, w1 = 0.2, T = 293.2 K): 6.50 × 10^−7 mole fraction
- Solubility (xe) in mole fraction ([2]; TP + water, w1 = 0.2, T = 298.2 K): 8.87 × 10^−7 mole fraction
- Solubility (xe) in mole fraction ([2]; TP + water, w1 = 0.2, T = 303.2 K): 1.23 × 10^−6 mole fraction
- Solubility (xe) in mole fraction ([2]; TP + water, w1 = 0.2, T = 308.2 K): 1.51 × 10^−6 mole fraction
- Solubility (xe) in mole fraction ([2]; TP + water, w1 = 0.2, T = 313.2 K): 1.95 × 10^−6 mole fraction
- Solubility (xe) in mole fraction ([2]; TP + water, w1 = 0.3, T = 293.2 K): 2.64 × 10^−6 mole fraction
- Solubility (xe) in mole fraction ([2]; TP + water, w1 = 0.3, T = 298.2 K): 3.50 × 10^−6 mole fraction
- Solubility (xe) in mole fraction ([2]; TP + water, w1 = 0.3, T = 303.2 K): 4.49 × 10^−6 mole fraction
- Solubility (xe) in mole fraction ([2]; TP + water, w1 = 0.3, T = 308.2 K): 5.35 × 10^−6 mole fraction
- Solubility (xe) in mole fraction ([2]; TP + water, w1 = 0.3, T = 313.2 K): 7.00 × 10^−6 mole fraction
- Solubility (xe) in mole fraction ([2]; TP + water, w1 = 0.4, T = 293.2 K): 1.12 × 10^−5 mole fraction
- Solubility (xe) in mole fraction ([2]; TP + water, w1 = 0.4, T = 298.2 K): 1.42 × 10^−5 mole fraction
- Solubility (xe) in mole fraction ([2]; TP + water, w1 = 0.4, T = 303.2 K): 1.72 × 10^−5 mole fraction
- Solubility (xe) in mole fraction ([2]; TP + water, w1 = 0.4, T = 308.2 K): 2.09 × 10^−5 mole fraction
- Solubility (xe) in mole fraction ([2]; TP + water, w1 = 0.4, T = 313.2 K): 2.62 × 10^−5 mole fraction
- Solubility (xe) in mole fraction ([2]; TP + water, w1 = 0.5, T = 293.2 K): 4.24 × 10^−5 mole fraction
- Solubility (xe) in mole fraction ([2]; TP + water, w1 = 0.5, T = 298.2 K): 5.26 × 10^−5 mole fraction
- Solubility (xe) in mole fraction ([2]; TP + water, w1 = 0.5, T = 303.2 K): 6.34 × 10^−5 mole fraction
- Solubility (xe) in mole fraction ([2]; TP + water, w1 = 0.5, T = 308.2 K): 7.33 × 10^−5 mole fraction
- Solubility (xe) in mole fraction ([2]; TP + water, w1 = 0.5, T = 313.2 K): 9.22 × 10^−5 mole fraction
- Solubility (xe) in mole fraction ([2]; TP + water, w1 = 0.6, T = 293.2 K): 1.73 × 10^−4 mole fraction
- Solubility (xe) in mole fraction ([2]; TP + water, w1 = 0.6, T = 298.2 K): 2.10 × 10^−4 mole fraction
- Solubility (xe) in mole fraction ([2]; TP + water, w1 = 0.6, T = 303.2 K): 2.44 × 10^−4 mole fraction
- Solubility (xe) in mole fraction ([2]; TP + water, w1 = 0.6, T = 308.2 K): 2.77 × 10^−4 mole fraction
- Solubility (xe) in mole fraction ([2]; TP + water, w1 = 0.6, T = 313.2 K): 3.36 × 10^−4 mole fraction
- Solubility (xe) in mole fraction ([2]; TP + water, w1 = 0.7, T = 293.2 K): 6.89 × 10^−4 mole fraction
- Solubility (xe) in mole fraction ([2]; TP + water, w1 = 0.7, T = 298.2 K): 8.00 × 10^−4 mole fraction
- Solubility (xe) in mole fraction ([2]; TP + water, w1 = 0.7, T = 303.2 K): 9.22 × 10^−4 mole fraction
- Solubility (xe) in mole fraction ([2]; TP + water, w1 = 0.7, T = 308.2 K): 1.05 × 10^−3 mole fraction
- Solubility (xe) in mole fraction ([2]; TP + water, w1 = 0.7, T = 313.2 K): 1.23 × 10^−3 mole fraction
- Solubility (xe) in mole fraction ([2]; TP + water, w1 = 0.8, T = 293.2 K): 2.81 × 10^−3 mole fraction
- Solubility (xe) in mole fraction ([2]; TP + water, w1 = 0.8, T = 298.2 K): 3.17 × 10^−3 mole fraction
- Solubility (xe) in mole fraction ([2]; TP + water, w1 = 0.8, T = 303.2 K): 3.53 × 10^−3 mole fraction
- Solubility (xe) in mole fraction ([2]; TP + water, w1 = 0.8, T = 308.2 K): 3.90 × 10^−3 mole fraction
- Solubility (xe) in mole fraction ([2]; TP + water, w1 = 0.8, T = 313.2 K): 4.43 × 10^−3 mole fraction
- Solubility (xe) in mole fraction ([2]; TP + water, w1 = 0.9, T = 293.2 K): 1.12 × 10^−2 mole fraction
- Solubility (xe) in mole fraction ([2]; TP + water, w1 = 0.9, T = 298.2 K): 1.25 × 10^−2 mole fraction
- Solubility (xe) in mole fraction ([2]; TP + water, w1 = 0.9, T = 303.2 K): 1.38 × 10^−2 mole fraction
- Solubility (xe) in mole fraction ([2]; TP + water, w1 = 0.9, T = 308.2 K): 1.48 × 10^−2 mole fraction
- Solubility (xe) in mole fraction ([2]; TP + water, w1 = 0.9, T = 313.2 K): 1.62 × 10^−2 mole fraction
- Solubility (xe) in mole fraction ([2]; w1 (TP mass fraction) = 0.0 (neat water), T = 293.2 K): 3.91 × 10^−8 mole fraction
- Solubility (xe) in mole fraction ([2]; w1 = 0.0 (neat water), T = 298.2 K): 5.67 × 10^−8 mole fraction
- Solubility (xe) in mole fraction ([2]; w1 = 0.0 (neat water), T = 303.2 K): 7.82 × 10^−8 mole fraction
- Solubility (xe) in mole fraction ([2]; w1 = 0.0 (neat water), T = 308.2 K): 9.78 × 10^−8 mole fraction
- Solubility (xe) in mole fraction ([2]; w1 = 0.0 (neat water), T = 313.2 K): 1.42 × 10^−7 mole fraction
- Solubility (xe) in mole fraction ([2]; w1 = 1.0 (neat TP), T = 293.2 K): 4.52 × 10^−2 mole fraction
- Solubility (xe) in mole fraction ([2]; w1 = 1.0 (neat TP), T = 298.2 K): 4.78 × 10^−2 mole fraction
- Solubility (xe) in mole fraction ([2]; w1 = 1.0 (neat TP), T = 303.2 K): 5.08 × 10^−2 mole fraction
- Solubility (xe) in mole fraction ([2]; w1 = 1.0 (neat TP), T = 308.2 K): 5.44 × 10^−2 mole fraction
- Solubility (xe) in mole fraction ([2]; w1 = 1.0 (neat TP), T = 313.2 K): 5.83 × 10^−2 mole fraction
- Apparent standard Gibbs energy (ΔsolnG°) [3, 6]: 37.82 kJ/mol
- Apparent standard enthalpy (ΔsolnH°) [3, 6]: 43.56 kJ/mol
- Apparent standard entropy (ΔsolnS°) [3, 6]: 18.92 J mol^−1 K^−1
- Apparent standard Gibbs energy (ΔsolnG°) [3, 7]: 34.43 kJ/mol
- Apparent standard enthalpy (ΔsolnH°) [3, 7]: 41.69 kJ/mol
- Apparent standard entropy (ΔsolnS°) [3, 7]: 23.94 J mol^−1 K^−1
- Apparent standard Gibbs energy (ΔsolnG°) [3, 8]: 31.10 kJ/mol
- Apparent standard enthalpy (ΔsolnH°) [3, 8]: 36.24 kJ/mol
- Apparent standard entropy (ΔsolnS°) [3, 8]: 16.96 J mol^−1 K^−1
- Apparent standard Gibbs energy (ΔsolnG°) [3, 9]: 27.64 kJ/mol
- Apparent standard enthalpy (ΔsolnH°) [3, 9]: 31.78 kJ/mol
- Apparent standard entropy (ΔsolnS°) [3, 9]: 13.68 J mol^−1 K^−1
- Apparent standard Gibbs energy (ΔsolnG°) [3, 10]: 24.38 kJ/mol
- Apparent standard enthalpy (ΔsolnH°) [3, 10]: 28.78 kJ/mol
- Apparent standard entropy (ΔsolnS°) [3, 10]: 14.50 J mol^−1 K^−1
- Apparent standard Gibbs energy (ΔsolnG°) [3, 11]: 20.98 kJ/mol
- Apparent standard enthalpy (ΔsolnH°) [3, 11]: 24.49 kJ/mol
- Apparent standard entropy (ΔsolnS°) [3, 11]: 11.57 J mol^−1 K^−1
- Apparent standard Gibbs energy (ΔsolnG°) [3, 12]: 17.61 kJ/mol
- Apparent standard enthalpy (ΔsolnH°) [3, 12]: 21.80 kJ/mol
- Apparent standard entropy (ΔsolnS°) [3, 12]: 13.82 J mol^−1 K^−1
- Apparent standard Gibbs energy (ΔsolnG°) [3, 13]: 14.23 kJ/mol
- Apparent standard enthalpy (ΔsolnH°) [3, 13]: 17.09 kJ/mol
- Apparent standard entropy (ΔsolnS°) [3, 13]: 9.464 J mol^−1 K^−1
- Apparent standard Gibbs energy (ΔsolnG°) [3, 14]: 10.83 kJ/mol
- Apparent standard enthalpy (ΔsolnH°) [3, 14]: 14.08 kJ/mol
- Apparent standard entropy (ΔsolnS°) [3, 14]: 10.72 J mol^−1 K^−1
- Apparent standard Gibbs energy (ΔsolnG°) [3, 15]: 41.32 kJ/mol
- Apparent standard enthalpy (ΔsolnH°) [3, 15]: 47.65 kJ/mol
- Apparent standard Gibbs energy (ΔsolnG°) [3, 16]: 7.492 kJ/mol
- Apparent standard enthalpy (ΔsolnH°) [3, 16]: 9.719 kJ/mol
- Apparent standard entropy (ΔsolnS°) [3, 16]: 7.346 J mol^−1 K^−1
Compound: C(=C\c1ccccc1)/CN1CCN(C(c2ccccc2)c2ccccc2)CC1 [CNZ, 1-benzhydryl-4-[(E)-3-phenylprop-2-enyl]piperazine]
- Solubility in water [1]: practically insoluble in water
- Solubility in aqueous buffer ([4]; pH = 2.0, 310.2 K): 0.29 mg/mL (≈ 787 µM)
- Solubility in aqueous buffer ([4]; pH = 5.0, 310.2 K): 0.017 mg/mL (≈ 46.1 µM)
- Solubility in aqueous buffer ([4]; pH = 6.5, 310.2 K): 0.002 mg/mL (≈ 5.43 µM)
- Mole fraction solubility in water ([5]; 298.3 K): 6.63 × 10^−8 mole fraction
- Mole fraction solubility in water ([5]; 303.0 K): 7.71 × 10^−8 mole fraction
- Mole fraction solubility in water ([5]; 307.8 K): 9.35 × 10^−8 mole fraction
